Experimental findings from patent US20240018136A1, “CDK Inhibitors And Their Use As Pharmaceuticals” (Prelude Therapeutics, Incorporated, priority 2022, published 2024) are described below.

Broadly, the IC50 is the midpoint of a concentration-inhibition curve.

Bounds are passed on as bounds.

In one assay the test system is OVCAR3 p-RB. The assay can be described thus: pRB ICW assay in OVCAR3 cells. The class given is cell-based. The conditions noted are these: Homo sapiens, OVCAR-3, incubated with compound for 2 hours. In short, it runs like this: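 OVCAR3 cells were treated 2 h at 37 °C with a 9-point half-log compound series, in duplicate, with 10 μM reference compound as maximum inhibition. Cells were then fixed, permeabilized and stained with anti-phospho-RB plus DRAQ5. In-cell western intensities were read at 700/800 nm on Odyssey CLx.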

The target of a further assay is CDK2/Cyclin E2 (Homo sapiens, UniProt P24941). Nature of the assay: CDK2/CyclinE2 enzymatic activity assay (TR-FRET). The class given is biochemical. The conditions noted are these: ATP 1 mM final, read-out: CDK2_E1 IC50. In short, it runs like this: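 Insect-cell-expressed CDK2/Cyclin E2 (1 nM), ULight-4E-BP1 (50 nM) and ATP (1 mM) in HEPES pH 7.4 buffer were preincubated 20 min at RT with compound (9-dose, 3-fold), started with 10 mM MgCl2 and run 45 min at 37 °C. EDTA/Eu-anti-P-4E-BP1 stop, 60 min TR-FRET detection; IC50 from 4-parameter Hill fit.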

For another assay, the target named is T1, CDK4/Cyclin D1 (Homo sapiens, UniProt P11802).
T1 construct: purchased ProQinase; host or cells: insect cell
The assay can be described thus: CDK4/CyclinD1 enzymatic activity assay (TR-FRET). The class given is biochemical. Particulars: ATP 2 mM final, read-out: CDK4_D1 IC50. In a few lines:
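Insect-cell-expressed CDK4/Cyclin D1 (1 nM) phosphorylated ULight-4E-BP1 peptide (100 nM) at 2 mM ATP in HEPES pH 7.4 buffer after 20 min compound preincubation. Reaction started with 10 mM MgCl2, ran 45 min at 37 °C, then EDTA quench and Eu-anti-phospho-4E-BP1 TR-FRET detection. IC50 from 9-point 3-fold dilutions, 4-parameter fit.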

T1 sequence (P11802 whole entry): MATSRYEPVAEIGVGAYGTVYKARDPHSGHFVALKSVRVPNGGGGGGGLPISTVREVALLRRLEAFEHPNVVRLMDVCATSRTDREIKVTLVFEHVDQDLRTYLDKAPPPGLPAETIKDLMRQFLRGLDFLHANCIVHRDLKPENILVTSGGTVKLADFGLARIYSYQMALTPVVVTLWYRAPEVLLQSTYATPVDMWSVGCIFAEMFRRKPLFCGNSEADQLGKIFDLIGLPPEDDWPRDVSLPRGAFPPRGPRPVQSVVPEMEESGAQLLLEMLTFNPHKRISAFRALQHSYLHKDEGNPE
T1 sequence (P24385 whole entry partner): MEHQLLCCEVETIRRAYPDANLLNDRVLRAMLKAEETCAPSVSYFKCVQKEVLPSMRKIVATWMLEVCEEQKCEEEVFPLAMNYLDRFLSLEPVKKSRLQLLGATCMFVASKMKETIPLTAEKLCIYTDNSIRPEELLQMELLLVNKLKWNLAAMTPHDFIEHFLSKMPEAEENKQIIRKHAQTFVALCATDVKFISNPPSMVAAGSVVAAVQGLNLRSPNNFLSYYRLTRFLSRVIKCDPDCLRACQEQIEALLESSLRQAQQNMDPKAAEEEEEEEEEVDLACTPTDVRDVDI

As to `C[C@@H]1CN(S(=O)(=O)c2cn(C)cn2)CC[C@@H]1Nc1ncc(C(F)(F)F)c(-c2cnc(CC(C)(C)O)s2)n1` [Example 72, 2-methyl-1-(5-(2-(((3R,4S)-3-methyl-1-((1-methyl-1H-imidazol-4-yl)sulfonyl)piperidin-4-yl)amino)-5-(trifluoromethyl)pyrimidin-4-yl)thiazol-2-yl)propan-2-ol], the IC50 was 100 to 1000 nM in the assay on OVCAR3 p-RB, ≤ 100 nM at CDK2/Cyclin E2 and 100 to 1000 nM on CDK4/Cyclin D1.
On to `Cn1cc(S(=O)(=O)N2CC[C@H](Nc3ncc(C(F)(F)F)c(-c4cnc(CC(C)(C)O)s4)n3)[C@H](F)C2)cn1` [Example 73, 1-(5-(2-(((3R,4S)-3-fluoro-1-((1-methyl-1H-pyrazol-4-yl)sulfonyl)piperidin-4-yl)amino)-5-(trifluoromethyl)pyrimidin-4-yl)thiazol-2-yl)-2-methylpropan-2-ol], for which the half-maximal inhibitory concentration (IC50) with OVCAR3 p-RB, at CDK2/Cyclin E2 and at CDK4/Cyclin D1 was ≤ 100 nM throughout.
With `Cn1cnc(S(=O)(=O)N2CC[C@H](Nc3ncc(C(F)(F)F)c(-c4cnc(CC(C)(C)O)s4)n3)[C@H](F)C2)c1` [Example 74, 1-(5-(2-(((3R,4S)-3-fluoro-1-((1-methyl-1H-imidazol-4-yl)sulfonyl)piperidin-4-yl)amino)-5-(trifluoromethyl)pyrimidin-4-yl)thiazol-2-yl)-2-methylpropan-2-ol], the IC50 in the assay with OVCAR3 p-RB, on CDK2/Cyclin E2 and at CDK4/Cyclin D1 was ≤ 100 nM in each case.
Consider `Cn1cnc(S(=O)(=O)N2CCC(Nc3ncc(C(F)(F)F)c(-c4cnc(C(O)C(C)(C)O)s4)n3)CC2)c1` (stereo not drawn) [Example 75, 2-methyl-1-(5-(2-((1-((1-methyl-1H-imidazol-4-yl)sulfonyl)piperidin-4-yl)amino)-5-(trifluoromethyl)pyrimidin-4-yl)thiazol-2-yl)propane-1,2-diol], for which the IC50 is 100 to 1000 nM with OVCAR3 p-RB, ≤ 100 nM at CDK2/Cyclin E2 and ≤ 100 nM on CDK4/Cyclin D1.
For the molecule `CC(C)(O)Cc1ncc(-c2nc(NC3CCN(S(=O)(=O)c4cnc5cccnn45)CC3)ncc2C(F)(F)F)s1` [Example 76, 1-(5-(2-((1-(imidazo[1,2-b]pyridazin-3-ylsulfonyl)piperidin-4-yl)amino)-5-(trifluoromethyl)pyrimidin-4-yl)thiazol-2-yl)-2-methylpropan-2-ol], the IC50 was ≤ 100 nM in the assay on OVCAR3 p-RB, ≤ 100 nM on CDK2/Cyclin E2 and 100 to 1000 nM on CDK4/Cyclin D1.
`CC(C)(O)Cc1ncc(-c2nc(NC3CCN(S(=O)(=O)c4cnn(CC#N)c4)CC3)ncc2C(F)(F)F)s1` [Example 77]: the IC50 with OVCAR3 p-RB, on CDK2/Cyclin E2 and at CDK4/Cyclin D1 was ≤ 100 nM in each case.
Regarding `CC(C)(O)Cc1ncc(-c2nc(NC3CCN(S(=O)(=O)CCCN4CCC(C#N)CC4)CC3)ncc2C(F)(F)F)s1` [Example 78, 1-(3-((4-((4-(2-(2-hydroxy-2-methylpropyl)thiazol-5-yl)-5-(trifluoromethyl)pyrimidin-2-yl)amino)piperidin-1-yl)sulfonyl)propyl)piperidine-4-carbonitrile], the IC50 is 100 to 1000 nM with OVCAR3 p-RB, ≤ 100 nM at CDK2/Cyclin E2 and ≤ 100 nM at CDK4/Cyclin D1.
With `CC(C)(O)Cc1ncc(-c2nc(NC3CCN(S(=O)(=O)CCCN4CCOCC4)CC3)ncc2C(F)(F)F)s1` [Example 79, 2-methyl-1-(5-(2-((1-((3-morpholinopropyl)sulfonyl)piperidin-4-yl)amino)-5-(trifluoromethyl)pyrimidin-4-yl)thiazol-2-yl)propan-2-ol], the IC50 in the assay with OVCAR3 p-RB was 100 to 1000 nM; at CDK2/Cyclin E2, ≤ 100 nM; at CDK4/Cyclin D1, ≤ 100 nM.
In the case of `CN1CCN(CCCS(=O)(=O)N2CCC(Nc3ncc(C(F)(F)F)c(-c4cnc(CC(C)(C)O)s4)n3)CC2)CC1` [Example 80, 2-methyl-1-(5-(2-((1-((3-(4-methylpiperazin-1-yl)propyl)sulfonyl)piperidin-4-yl)amino)-5-(trifluoromethyl)pyrimidin-4-yl)thiazol-2-yl)propan-2-ol], the IC50 in the assay with OVCAR3 p-RB is 100 to 1000 nM; on CDK2/Cyclin E2 it was ≤ 100 nM; at CDK4/Cyclin D1, ≤ 100 nM.
For `CC(O)c1ncc(-c2nc(NC3CCN(S(C)(=O)=O)CC3)ncc2C(F)(F)F)s1` (stereo not drawn) [Example 81, 1-(5-(2-((1-(methylsulfonyl)piperidin-4-yl)amino)-5-(trifluoromethyl)pyrimidin-4-yl)thiazol-2-yl)ethan-1-ol], the concentration for half-maximal inhibition (IC50) with OVCAR3 p-RB is 100 to 1000 nM; on CDK2/Cyclin E2, ≤ 100 nM; at CDK4/Cyclin D1 it was ≤ 100 nM.
On to `CC(O)c1ncc(-c2nc(NC3CCN(S(=O)(=O)c4cnn(C)c4)CC3)ncc2C(F)(F)F)s1` (stereo not drawn) [Example 82, 1-(5-(2-((1-((1-methyl-1H-pyrazol-4-yl)sulfonyl)piperidin-4-yl)amino)-5-(trifluoromethyl)pyrimidin-4-yl)thiazol-2-yl)ethan-1-ol], for which the IC50 with OVCAR3 p-RB, on CDK2/Cyclin E2 and at CDK4/Cyclin D1 was ≤ 100 nM in each case.
As to `CC(O)c1ncc(-c2nc(NC3CCN(S(=O)(=O)c4cn(C)cn4)CC3)ncc2C(F)(F)F)s1` (stereo not drawn) [Example 83, 1-(5-(2-((1-((1-methyl-1H-imidazol-4-yl)sulfonyl)piperidin-4-yl)amino)-5-(trifluoromethyl)pyrimidin-4-yl)thiazol-2-yl)ethan-1-ol], the IC50 in the assay with OVCAR3 p-RB, on CDK2/Cyclin E2 and on CDK4/Cyclin D1 was ≤ 100 nM throughout.
On to `Cn1cc(S(=O)(=O)N2CCC(Nc3ncc(C(F)(F)F)c(-c4cnc(C(O)C5CC5)s4)n3)CC2)cn1` (stereo not drawn) [Example 84, cyclopropyl(5-(2-((1-((1-methyl-1H-pyrazol-4-yl)sulfonyl)piperidin-4-yl)amino)-5-(trifluoromethyl)pyrimidin-4-yl)thiazol-2-yl)methanol], for which the IC50 in the assay on OVCAR3 p-RB, on CDK2/Cyclin E2 and at CDK4/Cyclin D1 was ≤ 100 nM in each case.
For `CC(O)c1ncc(-c2nc(NC3CCN(S(=O)(=O)c4ccsc4)CC3)ncc2C(F)(F)F)s1` (stereo not drawn) [Example 85, 1-(5-(2-((1-(thiophen-3-ylsulfonyl)piperidin-4-yl)amino)-5-(trifluoromethyl)pyrimidin-4-yl)thiazol-2-yl)ethan-1-ol], the IC50 with OVCAR3 p-RB, at CDK2/Cyclin E2 and at CDK4/Cyclin D1 was ≤ 100 nM each time.
Take `COCc1nn(C)cc1S(=O)(=O)N1CCC(Nc2ncc(C(F)(F)F)c(-c3cnc(C(C)O)s3)n2)CC1` (stereo not drawn) [Example 86, 1-(5-(2-((1-((3-(methoxymethyl)-1-methyl-1H-pyrazol-4-yl)sulfonyl)piperidin-4-yl)amino)-5-(trifluoromethyl)pyrimidin-4-yl)thiazol-2-yl)ethan-1-ol]: the IC50 in the assay with OVCAR3 p-RB, at CDK2/Cyclin E2 and on CDK4/Cyclin D1 was ≤ 100 nM each time.
`CC(O)c1ncc(-c2nc(NC3CCN(S(=O)(=O)c4cnn(CC(N)=O)c4)CC3)ncc2C(F)(F)F)s1` (stereo not drawn) [Example 87, 2-(4-((4-((4-(2-(1-hydroxyethyl)thiazol-5-yl)-5-(trifluoromethyl)pyrimidin-2-yl)amino)piperidin-1-yl)sulfonyl)-1H-pyrazol-1-yl)acetamide]: the IC50 with OVCAR3 p-RB was 100 to 1000 nM; at CDK2/Cyclin E2, ≤ 100 nM; on CDK4/Cyclin D1 it was ≤ 100 nM.
As to `CC(=O)N1CCC(S(=O)(=O)N2CCC(Nc3ncc(C(F)(F)F)c(-c4cnc(C(C)O)s4)n3)CC2)CC1` (stereo not drawn) [Example 88, 1-(4-((4-((4-(2-(1-hydroxyethyl)thiazol-5-yl)-5-(trifluoromethyl)pyrimidin-2-yl)amino)piperidin-1-yl)sulfonyl)piperidin-1-yl)ethan-1-one], the IC50 is 100 to 1000 nM in the assay with OVCAR3 p-RB, ≤ 100 nM at CDK2/Cyclin E2 and ≤ 100 nM at CDK4/Cyclin D1.
With `Cn1cc(S(=O)(=O)N2CCC(Nc3ncc(C(F)(F)F)c(-c4cnc(C(O)C(F)(F)F)s4)n3)CC2)cn1` (stereo not drawn) [Example 89, 2,2,2-trifluoro-1-(5-(2-((1-((1-methyl-1H-pyrazol-4-yl)sulfonyl)piperidin-4-yl)amino)-5-(trifluoromethyl)pyrimidin-4-yl)thiazol-2-yl)ethan-1-ol], the IC50 in the assay on OVCAR3 p-RB, at CDK2/Cyclin E2 and on CDK4/Cyclin D1 was ≤ 100 nM in each case.
For `Cn1cnc(S(=O)(=O)N2CCC(Nc3ncc(C(F)(F)F)c(-c4cnc(C(O)C(F)(F)F)s4)n3)CC2)c1` (stereo not drawn) [Example 90, 2,2,2-trifluoro-1-(5-(2-((1-((1-methyl-1H-imidazol-4-yl)sulfonyl)piperidin-4-yl)amino)-5-(trifluoromethyl)pyrimidin-4-yl)thiazol-2-yl)ethan-1-ol], the IC50 with OVCAR3 p-RB, at CDK2/Cyclin E2 and at CDK4/Cyclin D1 was ≤ 100 nM each time.
For `Cn1cnc(S(=O)(=O)N2CCC(Nc3ncc(C(F)(F)F)c(-c4cnc(C(O)C(F)F)s4)n3)CC2)c1` (stereo not drawn) [Example 91, 2,2-difluoro-1-(5-(2-((1-((1-methyl-1H-imidazol-4-yl)sulfonyl)piperidin-4-yl)amino)-5-(trifluoromethyl)pyrimidin-4-yl)thiazol-2-yl)ethan-1-ol], the IC50 in the assay on OVCAR3 p-RB, at CDK2/Cyclin E2 and at CDK4/Cyclin D1 was ≤ 100 nM in each case.
